Values quoted from earlier work in patent US8916194B2 (Lupin Limited, priority 2010, dated 2014).

Conditions: in vivo

- half-life: ~8 h
SMILES: CCN(CC)C(=O)C1(c2ccccc2)CC1CN (stereo not drawn) [Milnacipran, cis-2-amino methyl-N, N-diethyl-1-phenyl cyclopropane carboxamide]
